Test results reported in ChEMBL document CHEMBL5532694, “PDE-stable 2'3'-cGAMP analogues, containing 5'-S-phosphorothioester linkage, as STING agonists” (RSC Med Chem, 2024).

Columns and labels:
[1] = Stability of compound assessed as Poxin (unknown origin) mediated compound degradation at 300 uM and measured after 3 hrs by HPLC analysis; type: ADME
[2] = Stability of compound at 95 degreeC incubated for 5 mins by HPLC analysis; type: physicochemical
[3] = target: T1, Ectonucleotide pyrophosphatase/phosphodiesterase family member 1 (Homo sapiens, UniProt P22413); assay: Stability of compound assessed as ENPP1 (unknown origin) mediated compound degradation at 300 uM measured upto 24 hrs by HPLC analysis; type: ADME
T1 sequence (P22413 whole entry): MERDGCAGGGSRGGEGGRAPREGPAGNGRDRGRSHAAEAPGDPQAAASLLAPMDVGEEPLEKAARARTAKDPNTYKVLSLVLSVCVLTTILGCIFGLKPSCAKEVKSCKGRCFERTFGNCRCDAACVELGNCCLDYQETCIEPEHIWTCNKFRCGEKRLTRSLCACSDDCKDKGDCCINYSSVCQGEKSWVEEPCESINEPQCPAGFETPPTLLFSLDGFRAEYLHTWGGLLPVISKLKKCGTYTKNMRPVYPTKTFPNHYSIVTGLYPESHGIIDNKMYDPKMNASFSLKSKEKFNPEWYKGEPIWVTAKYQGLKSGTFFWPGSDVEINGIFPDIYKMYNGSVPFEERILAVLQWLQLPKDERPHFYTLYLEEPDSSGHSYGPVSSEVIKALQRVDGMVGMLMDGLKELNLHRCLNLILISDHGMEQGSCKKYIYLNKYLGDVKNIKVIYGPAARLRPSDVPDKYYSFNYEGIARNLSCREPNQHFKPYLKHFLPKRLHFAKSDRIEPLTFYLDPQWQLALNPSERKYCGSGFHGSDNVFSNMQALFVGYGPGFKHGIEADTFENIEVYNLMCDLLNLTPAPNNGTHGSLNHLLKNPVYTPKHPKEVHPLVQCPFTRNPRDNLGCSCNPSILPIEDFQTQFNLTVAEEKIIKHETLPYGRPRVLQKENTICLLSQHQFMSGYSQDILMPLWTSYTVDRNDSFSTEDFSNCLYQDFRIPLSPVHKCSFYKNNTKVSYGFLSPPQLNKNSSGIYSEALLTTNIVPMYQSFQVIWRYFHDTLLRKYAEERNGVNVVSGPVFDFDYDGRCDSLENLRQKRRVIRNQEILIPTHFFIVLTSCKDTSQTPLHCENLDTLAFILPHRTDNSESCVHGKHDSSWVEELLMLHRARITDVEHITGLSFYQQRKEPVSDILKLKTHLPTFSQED

[4] = target: T2, Stimulator of interferon genes protein (Homo sapiens, UniProt Q86WV6); assay: Agonist activity at STING in human THP1-Dual KI-hSTING-R232 cells assessed as IRF activation incubated for 24 hrs by QUANTI-Luc reagent based luminescence assay; type: cell-based
[5] = target: T2, Stimulator of interferon genes protein
Description: Binding affinity to wildtype human STING expressed in Escherichia coli BL21 (DE3) assessed as thermal stability by measuring increase in melting temperature by differential scanning fluorimetry analysis

[6] = target: T2, Stimulator of interferon genes protein; assay: Displacement of 2'-Fluo-AHC-c-di-GMP from wildtype human STING expressed in Escherichia coli BL21 (DE3) incubated for 5 mins by fluorescence polarization assay
[7] = target: T2, Stimulator of interferon genes protein; assay: Agonist activity at STING in wildtype human THP1-Dual cells assessed as IRF activation incubated for 24 hrs by QUANTI-Luc reagent based luminescence assay; type: cell-based
[8] = Stability of compound assessed as Poxin (unknown origin) mediated compound degradation at 300 uM and measured after 24 hrs by HPLC analysis; type: ADME
[9] = Stability of compound assessed as Poxin (unknown origin) mediated compound degradation at 300 uM and measured after 30 mins by HPLC analysis; type: ADME; settings: 0.5 h

T2 sequence (Q86WV6 whole entry): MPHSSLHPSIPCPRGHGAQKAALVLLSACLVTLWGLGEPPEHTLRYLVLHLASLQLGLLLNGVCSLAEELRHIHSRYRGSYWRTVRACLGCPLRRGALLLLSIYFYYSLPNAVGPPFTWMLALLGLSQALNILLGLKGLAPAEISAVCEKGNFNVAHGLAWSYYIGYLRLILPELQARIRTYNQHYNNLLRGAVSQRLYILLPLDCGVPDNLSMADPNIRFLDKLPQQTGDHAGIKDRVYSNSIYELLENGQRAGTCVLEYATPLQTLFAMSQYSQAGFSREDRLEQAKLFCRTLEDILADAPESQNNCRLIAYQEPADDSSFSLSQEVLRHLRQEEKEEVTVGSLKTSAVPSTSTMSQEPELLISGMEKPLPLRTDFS

Stability [1] | Stability [2] | Stability [3] | EC50 [4] [µM] | ΔTm [5] [°C] | IC50 [6] [µM] | EC50 [7] [µM] | Stability [8] | Compound | Stability [9]
Unstable | Stable | Stable | 27.4 | 8.2 | 18.6 | 27.2 | – | CCN(CC)CC.CCN(CC)CC.Nc1nc2c(ncn2[C@@H]2O[C@@H]3COP(=O)(O)O[C@H]4[C@@H](O)[C@H](n5cnc6c(N)ncnc65)O[C@@H]4CSP(=O)(O)O[C@@H]2[C@@H]3O)c(=O)[nH]1 | –
– | Stable | Stable | – | – | – | – | Stable | CCN(CC)CC.CCN(CC)CC.Nc1nc2c(ncn2[C@@H]2O[C@@H]3COP(=O)(O)O[C@H]4[C@@H](F)[C@H](n5cnc6c(N)ncnc65)O[C@@H]4CSP(=O)(O)O[C@@H]2[C@@H]3O)c(=O)[nH]1 | –
– | – | – | 16.4 | – | 7.87 | 37 | – | Nc1nc2c(ncn2[C@@H]2O[C@@H]3COP(=O)(O)O[C@H]4C[C@H](n5cnc6c(N)ncnc65)O[C@@H]4CSP(=O)(O)O[C@@H]2[C@@H]3O)c(=O)[nH]1 | –

Compound | Stability [1] | Stability [2] | Stability [3] | EC50 [4] [µM] | ΔTm [5] [°C] | IC50 [6] [µM] | EC50 [7] [µM] | Stability [8] | Stability [9]
Nc1nc2c(ncn2[C@@H]2O[C@@H]3COP(=O)(O)O[C@H]4[C@@H](O)[C@H](n5cnc6c(N)ncnc65)O[C@@H]4COP(=O)(O)O[C@@H]2[C@@H]3O)c(=O)[nH]1 | – | Stable | Unstable | – | – | – | – | – | Unstable
